Structures can show the parent of a compound that is named as a salt.

As a reminder, the IC50 is the concentration that gives 50% inhibition.

In one experiment the target is T1, Porcine DPP-IV (Sus scrofa, UniProt P22411).
T1 construct: purchased Sigma-Aldrich Germany
T1 sequence (P22411 whole entry): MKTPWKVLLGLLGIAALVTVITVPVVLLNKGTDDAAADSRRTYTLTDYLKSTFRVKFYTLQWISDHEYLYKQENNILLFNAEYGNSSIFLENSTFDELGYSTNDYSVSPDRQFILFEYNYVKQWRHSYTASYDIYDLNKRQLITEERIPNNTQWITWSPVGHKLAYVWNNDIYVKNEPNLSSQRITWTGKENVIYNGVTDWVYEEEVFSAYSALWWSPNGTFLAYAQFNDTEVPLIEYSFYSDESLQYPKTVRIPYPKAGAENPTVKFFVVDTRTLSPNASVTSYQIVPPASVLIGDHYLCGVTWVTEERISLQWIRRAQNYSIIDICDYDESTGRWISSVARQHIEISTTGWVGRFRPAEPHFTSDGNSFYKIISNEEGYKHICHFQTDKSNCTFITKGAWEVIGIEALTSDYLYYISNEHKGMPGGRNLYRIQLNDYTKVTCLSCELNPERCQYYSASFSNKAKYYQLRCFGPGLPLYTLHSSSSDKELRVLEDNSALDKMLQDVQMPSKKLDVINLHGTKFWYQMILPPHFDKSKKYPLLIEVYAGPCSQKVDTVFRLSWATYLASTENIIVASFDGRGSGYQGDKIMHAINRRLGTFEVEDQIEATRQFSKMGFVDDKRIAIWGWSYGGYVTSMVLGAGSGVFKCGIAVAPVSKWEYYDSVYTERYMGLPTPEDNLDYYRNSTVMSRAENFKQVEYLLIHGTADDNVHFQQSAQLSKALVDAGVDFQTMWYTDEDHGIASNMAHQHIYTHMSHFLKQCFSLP
Nature of the experiment: Assay of DPP-IV enzyme inhibitory activity (spectrophotometric, Gly-Pro-pNA cleavage). Particulars: Porcine DPP-IV, Gly-Pro-pNA substrate, 30° C.; mean ± SD of three experiments except compound Nos. 133 & 139; read-out: IC50 (μM) Mean ± SD, inhibitory activity on DPP-IV enzyme activity. In kind it is biochemical. The protocol: Assay of DPP-IV Enzyme Inhibitory Activity.
The assay method is a modified method (as described by Welch et al, 1998) based on spectrophotometric determination of the product formed by penultimate proline cleaving activity of the enzyme.
Assay protocol involves incubation of the enzyme dipeptidyl peptidase IV with the test substance at 30° C. for 30 min followed by addition of this reaction mixture to the substrate Gly-Pro-pNA that was equilibrated at 30° C. for 2 min. The enzyme cleaves the substrate at penultimate proline and releases p-nitroanilide, the optical density of which is measured at 385 nm. The formation of p-nitroanilide will be reduced in the presence of inhibitor. […] The activity of molecule is expressed in terms of % inhibition. At least three different concentrations were tried out for each of the test substances. The percentage inhibitions for each of the concentrations were plotted and an IC50 of the test compound was worked out. The enzyme inhibitory activity of different test compounds were compared based on the IC50 values.
The percentage inhibition % I, is calculated using the formula:
% I=[(1−vi/v0)]*100 where vi and v0 are the Vmax values with and without the test substance, respectively.
Substrate solution: 0.5 mM in 45 mM phosphate buffer
Substrate used: Gly-Pro-p-nitroanilide (Source: Sigma-Aldrich Co. Germany)
3.288 mg substrate in 1 ml 45 mM phosphate buffer was prepared as stock solution. 0.25 ml of this stock solution was diluted to 5 ml to get 0.5 mM substrate solution (90 μl to be added in each well). The stock solution of the substrate was used within three days of preparation.
Enzyme solution: Porcine DPP-IV (Sigma-Aldrich Germany) was used throughout the study. 0.4 mU in 80 μl of Tris. HCl buffer was prepared. Fresh solutions were prepared everyday for the assays.
Various concentrations of inhibitor were used: 0.391 μM, 0.781 μM, and 3.125 μM. Solutions of inhibitor were prepared and used on the same day.
280 μl of enzyme solution (0.4-mU/80 μl in Tris HCl buffer) was added to the eppendorf containing 70 μl solution of inhibitor or vehicle and mixed. This reaction mixture was incubated for 30 min at 30° C. The 96 well plate containing substrate solution was thermally equilibrated in the spectrophotometer for 2 min at 30° C. Later 100 μl of the enzyme-inhibitor pre-incubation solution was added to respective wells in a 96 well plate. Each concentration of the inhibitor was tested in triplicates.
The rate of change in UV absorbance (in presence of various concentrations of the inhibitor) was measured at 385 nm, with respect to wells containing only 0.5 mM substrate in 45 mM phosphate buffer as blank at every 10 min for 2 hours after adding enzyme-inhibitor mixture to wells containing substrate solution.
`CS(=O)(=O)NC1CCC(N(N)CC(=O)N2CSCC2C#N)CC1` (centres unmarked) [Compound No. 78, 3-[1-Oxo-2-(1-(1-methanesulphonylamino-4-cyclohexyl) hydrazino)]ethyl-4-cyanothiazolidine trifluoroacetate]: the IC50 was 0.25 ± 0.02 µM.

With `CC1CC(N(N)CC(=O)N2CSCC2C#N)CC(C)(C)C1` (centres unmarked) [Compound No. 79, 3-[1-Oxo-2-(1-(3,3,5-trimethylcyclohexyl)-hydrazino)]ethyl-4-cyanothiazolidine trifluoroacetate], the IC50 turned out to be 0.92 ± 0.03 µM.

`CCNN(CC(=O)N1CSCC1C#N)C(C)C` (centres unmarked) [Compound No. 80, 3-[1-Oxo-2-(1-isopropyl-2-ethyl)-hydrazino]-ethyl-4-cyanothiazolidine trifluoroacetate]: the 50% inhibitory concentration (IC50) is 2.27 ± 0.19 µM.

As for `N#CC1CSCN1C(=O)CN(N)C1CCN(Cc2ccccc2)CC1` (centres unmarked) [Compound No. 81, 3-[1-Oxo-2-[1-(1-phenylmethyl-piperidin-4-yl)]-hydrazino]-ethyl-4-cyanothiazolidine trifluoroacetate], the IC50 came out at 1.63 ± 0.15 µM.

On to `N#CC1CSCN1C(=O)CN(N)C1CCC(NS(=O)(=O)c2ccc(Cl)cc2)CC1` (centres unmarked) [Compound No. 82], for which the IC50 was 0.66 ± 0.1 µM.

Turning to `N#CC1CSCN1C(=O)CN1CCCCN1` (centres unmarked) [Compound No. 83], the IC50 is 82 ± 18 µM.

In the case of `CC(C)NN(CC(=O)N1CSCC1C#N)C1CCC(NS(C)(=O)=O)CC1` (centres unmarked) [Compound No. 84, 3-[1-Oxo-2-(1-(1-methanesulphonylamino-4-cyclohexyl)-2-isopropyl) hydrazino]ethyl-4-cyanothiazolidine trifluoroacetate], the IC50 is 5.78 ± 0.18 µM.

Turning to `N#CC1CSCN1C(=O)CN(N)C1CCC(NC(=O)c2ccc(F)cc2)CC1.O=C(O)C(F)(F)F` (centres unmarked) [Compound No. 100, 3-[1-oxo-2-[1-(4-fluorobenzoyl)aminocyclohexan-4-yl)]hydrazino]ethyl-4-cyanothiazolidine trifluoroacetate], the IC50 stood at 0.93 ± 0.015 µM.

As to `N#CC1CSCN1C(=O)CN(N)C1CCN(CC(=O)N2CCOCC2)CC1` (centres unmarked) [Compound No. 107, 3-[1-oxo-2-[1-(1-(−2-oxo-2(morpholin-4-yl)ethyl)piperidin-4-yl)]hydrazino]ethyl-4-cyanothiazolidine bis-trifluoroacetate], the IC50 was 0.525 ± 0.098 µM.

As for `N#Cc1cc(CN2CCC(N(N)CC(=O)N3CSCC3C#N)CC2)ccc1-c1ccccc1` (centres unmarked) [Compound No. 109, 3-[1-oxo-2-[1-(1-(2-cyanobiphenyl-4-yl)methyl)piperidine-4-yl]hydrazino]ethyl-4-cyanothiazolidine bis-trifluoroacetate], the IC50 turned out to be 1.02 ± 0.14 µM.

`N#CC1CSCN1C(=O)CN(N)C1CCN(C(=O)CN2CCOCC2)CC1` (centres unmarked) [Compound No. 110, 3-[1-oxo-2-[1-(1-(1-oxo-2-(morpholin-4-yl)ethyl)piperidin-4-yl)]hydrazino]ethyl-4-cyanothiazolidine bis-trifluoroacetate]: the half-inhibitory concentration (IC50) stood at 0.83 ± 0.05 µM.

Turning to `N#CC1CSCN1C(=O)CN(N)C1CCC(NCC(=O)Nc2ccc(Cl)cn2)CC1` (centres unmarked) [Compound No. 111, 3-[1-oxo-2-[1-(4-(2-oxo-2-(5-chloropyridin-2-yl)aminoethyl)aminocyclohex-1-yl)]hydrazino]ethyl-4-cyanothiazolidine tris-trifluoroacetate], the 50% inhibitory concentration (IC50) was 0.563 ± 0.077 µM.

Regarding `N#Cc1ccc(NC(=O)CNC2CCC(N(N)CC(=O)N3CSCC3C#N)CC2)cc1` (centres unmarked) [Compound No. 112, 3-[1-oxo-2-[1-(4-(2-oxo-2-(4-cyanophenyl)aminoethyl)aminocyclohex-1-yl)]hydrazino]ethyl-4-cyanothiazolidine bis-trifluoroacetate], the 50% inhibitory concentration (IC50) amounted to 1.47 ± 0.07 µM.

As for `N#CC1CSCN1C(=O)CN(N)C1CCC(NCC(=O)Nc2ccc(Cl)cc2)CC1` (centres unmarked) [Compound No. 113, 3-[1-oxo-2-[1-(4-(2-oxo-2-(4-chlorophenyl)aminoethyl)aminocyclohex-1-yl)]hydrazino]ethyl-4-cyanothiazolidine bis-trifluoroacetate], the IC50 came to 1.06 ± 0.3 µM.

In the case of `N#CC1CSCN1C(=O)CN(N)C1CCN(CC(=O)NCc2ccccc2F)CC1` (centres unmarked) [compound 122, 3-[1-oxo-2-(1-(1-(2-oxo-2-(2-flurobenzyl)aminoethyl)piperidine-4-yl))hydrazino]ethyl-4-cyanothiazolidine, bis-trifluoroacetate], the 50% inhibitory concentration (IC50) worked out at 0.51 ± 0.05 µM.

Consider `N#CC1CSCN1C(=O)CN(N)C1CCN(CCOc2ccccc2)CC1` (centres unmarked) [compound 123], for which the half-inhibitory concentration (IC50) was 0.676 ± 0.07 µM.

`N#CC1CCCN1C(=O)CN(N)C1CCN(CC(=O)Nc2ccc(Cl)cn2)CC1` (centres unmarked) [compound 124, 3-[1-oxo-2-(1-(1-(2-oxo-2-(5-chloropyridin-2-yl)aminoethyl)piperidin-4-yl))hydrazino]ethyl-2-cyanopyrrolidine, tris-trifluoroacetate]: the IC50 turned out to be 3.7 ± 0.5 µM.

For `N#CC1CSCN1C(=O)CN(N)C1CCN(CC(=O)NC2CCCCC2)CC1` (centres unmarked) [compound 125, 3-[1-oxo-2-(1-(1-(2-oxo-2-cyclohexyl)aminoethyl)piperidin-4-yl)hydrazino]ethyl-4-cyanothiazoline, bis-trifluoroacetate], the IC50 was 0.506 ± 0.06 µM.

For `CC(C)OCCCNC(=O)CN1CCC(N(N)CC(=O)N2CSCC2C#N)CC1` (centres unmarked) [compound 126], the 50% inhibitory concentration (IC50) stood at 0.468 ± 0.005 µM.

Consider `N#CC1CSCN1C(=O)CN(N)C1CCN(CC(=O)Nc2ccc(F)c(Cl)c2)CC1` (centres unmarked) [compound 128, 3-[1-oxo-2-(1-(1-(2-oxo-2-(3-chloro-4-fluoro-phenyl)aminoethyl)piperidine-4-yl))hydrazino]ethyl-4-cyanothiazolidine, bis-trifluoroacetate], for which the IC50 came to 0.342 ± 0.035 µM.

Take `CCOC(=O)Cc1csc(NC(=O)CN2CCC(N(N)CC(=O)N3CSCC3C#N)CC2)n1` (centres unmarked) [compound 129, 3-[1-oxo-2-(1-(1-(2-oxo-2-(4-ethoxycarbonylmethylthiazole-2-yl)aminoethyl)piperidine-4-yl)) hydrazino]ethyl-4-cyanothiazolidine, tris-trifluoroacetate]: the IC50 came to 0.362 ± 0.06 µM.

As for `N#CC1CSCN1C(=O)CN(N)C1CCN(CCC(=O)NC2CC2)CC1` (centres unmarked) [compound 132], the IC50 worked out at 1.77 ± 0.167 µM.

As for `COC(=O)NN(CC(=O)N1CSCC1C#N)C1CCN(CC(=O)Nc2ccc(Cl)cn2)CC1` (centres unmarked) [compound 133, 3-[1-oxo-2-(1-(1-(2-oxo-2-(5-chloropyridin-2-yl)aminoethyl)piperidine-4-yl)-2-methoxycarbonyl)hydrazino]ethyl-4-cyanothiazolidine, trihydrochloride], the 50% inhibitory concentration (IC50) was determined as 40.4 ± 6.4 µM.

Regarding `N#CC1CSCN1C(=O)CN(N)C1CCN(CC(=O)Nc2nccs2)CC1` (centres unmarked) [compound 134, 3-[1-oxo-2-(1-(1-(2-oxo-2-(thiazole-2-yl)-aminoethyl)piperidin-4-yl))hydrazino]ethyl-4-cyanothiazolidine, tris-trifluoroacetate], the IC50 turned out to be 0.205 ± 0.011 µM.

In the case of `COCCNC(=O)CN1CCC(N(N)CC(=O)N2CSCC2C#N)CC1` (centres unmarked) [compound 135, 3-[1-oxo-2-(1-(1-(2-oxo-2-(2-methoxyethyl)aminoethyl)piperidin-4-yl))hydrazino]ethyl-4-cyanothiazolidine, bis-trifluoroacetate], the IC50 was found to be 1.03 ± 0.035 µM.

Regarding `N#CC1CSCN1C(=O)CN(N)C1CCN(CC(=O)Nc2ccccn2)CC1` (centres unmarked) [compound 136, 3-[1-oxo-2-(1-(1-(2-oxo-2-(pyridin-2-yl)aminoethyl)piperidine-4-yl))hydrazino]ethyl-4-cyanothiazolidine, tris-trifluoroacetate], the half-maximal inhibitory concentration (IC50) worked out at 0.21 ± 0.004 µM.

For the compound `N#CC1CSCN1C(=O)CN(N)C1CCN(CC(=O)Nc2nc3ccccc3s2)CC1` (centres unmarked) [compound 138], the IC50 stood at 0.104 ± 0.009 µM.

With `Cc1cnc(C(=O)NC2CCC(N(N)CC(=O)N3CSCC3C#N)CC2)cn1` (centres unmarked) [compound 139, 3-[1-oxo-2-(1-(1-(5-methylpyrazine-2-ylcarbonyl)amino-4-cyclohexyl)) hydrazino]ethyl-4-cyanothiazolidine, tris-trifluoroacetate], the half-inhibitory concentration (IC50) worked out at 0.485 ± 0.01 µM.

Still in this experiment, the particulars now being: Porcine DPP-IV, Gly-Pro-pNA substrate, 30° C.; mean ± SD of three experiments except compound Nos. 133 & 139; trihydrochloride; read-out: IC50 (μM) Mean ± SD, inhibitory activity on DPP-IV enzyme activity.
Consider `N#CC1CSCN1C(=O)CN(N)C1CCN(CC(=O)Nc2nc3ccccc3s2)CC1` (centres unmarked) [compound 144, 3-[1-oxo-2-(1-(1-(2-oxo-2-(benzothiazole-2-yl)aminoethyl)piperidine-4-yl)) hydrazine]ethyl-4-cyanothiazolidine, trihydrochloride], for which the half-inhibitory concentration (IC50) was determined as 0.167 ± 0.007 µM.

The record behind these values is patent US20040106802A1, “Novel compounds and therapeutic uses thereof” (TORRENT PHARMACEUTICALS LTD., priority 2002, published 2004).
